Results published in ChEMBL document CHEMBL3137667, “[Drug-induced liver injury; fourteenth updated edition of the bibliographic database of liver injuries and related drugs]” (Gastroenterol Clin Biol, 2004).

Legend:
[1] = human
[2] = Highest frequency of moderate liver toxicity observed during clinical trials, expressed as a percentage. [column '% BIOL' in source]; conditions: human
[3] = human; remark: listed apart in the source
[4] = human; remark: listed apart in the source
[5] = human; remark: listed apart in the source
[6] = human; remark: listed apart in the source
[7] = human; remark: listed apart in the source
[8] = Highest frequency of acute liver toxicity observed during clinical trials, expressed as a percentage. [column '% AIGUE' in source]; conditions: human
[9] = human, serum
[10] = human, serum; remark: listed apart in the source
[11] = human, serum, 4383 h
[12] = human; remark: listed apart in the source
[13] = human; remark: listed apart in the source
[14] = human; remark: listed apart in the source
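Wherever Hepatotoxicity (association with vascular disease) is given: count of indexed literature references reporting vascular liver injury in humans, e.g. peliosis hepatitis, hepatic veno-occlusive disease or Budd-Chiari syndrome.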
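Wherever Hepatotoxicity (benign tumour) is given: value is a count of indexed literature references citing a benign tumour confirmed by histopathology.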
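Wherever Hepatotoxicity (choleostasis) is given: human cholestatic liver injury, shown by histopathology or by peak ALT or AST elevation over alkaline phosphatase ratio below 2, value counts indexed literature reports.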
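Wherever Hepatotoxicity (chronic liver disease) is given: chronic liver injury confirmed by histopathology or persistently raised serum aminotransferase activity beyond 6 months, value given as the count of indexed literature references.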
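Wherever Hepatotoxicity (cirrhosis) is given: value is a count of indexed literature references reporting cirrhosis confirmed by histopathology.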
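Wherever Hepatotoxicity (cytolytic) is given: human cytolytic liver injury, shown by histopathology or by a ratio above 5 of peak ALT or AST elevation to alkaline phosphatase elevation, value counts indexed references.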
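Wherever Hepatotoxicity (granulomatous hepatitis) is given: value is a count of indexed literature references reporting granulomatous liver disease confirmed by histopathology.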
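Wherever Hepatotoxicity (malignant tumour) is given: malignant tumour confirmed by histopathology, value gives the count of indexed literature references reporting it.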
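Wherever Hepatotoxicity (severe hepatitis) is given: human clinical data: severe hepatitis, meaning potentially life-threatening liver failure or clinically observed cases, the value counts how many indexed literature references report it.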
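Wherever Hepatotoxicity (steatosis) is given: steatosis confirmed by histopathology, value is the count of indexed references.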

SMILES | Hepatotoxicity (severe hepatitis) [1] | Hepatotoxicity (moderate) [2] | Hepatotoxicity (cytolytic) [3] | Hepatotoxicity (steatosis) [4] | Hepatotoxicity (benign tumour) [5] | Hepatotoxicity (association with vascular disease) [6] | Hepatotoxicity (cirrhosis) [7] | Hepatotoxicity (acute) [8] | Hepatotoxicity (acute) [9] | Hepatotoxicity (moderate) [10] | Hepatotoxicity (chronic liver disease) [11] | Hepatotoxicity (granulomatous hepatitis) [12] | Hepatotoxicity (choleostasis) [13] | Hepatotoxicity (malignant tumour) [14] | Hepatotoxicity (severe hepatitis) ([1]; Liver) | Hepatotoxicity (moderate) ([2]; Liver) | Hepatotoxicity (acute) ([8]; Liver)
CC(C)(C)C(=O)OCOC(=O)[C@@H]1N2C(=O)[C@@H](/N=C/N3CCCCCC3)[C@H]2SC1(C)C [AMDINOCILLIN PIVOXIL] | 0 | 17.2% | 0 | 0 | 0 | 0 | 0 | 0% | 0 | 1 | 0 | 0 | 0 | 0 | – | – | –
CNn1cc(C(=O)O)c(=O)c2cc(F)c(N3CCN(C)CC3)cc21 [AMIFLOXACIN] | – | – | 1 | 0 | 0 | 0 | 0 | – | 1 | 1 | 0 | 0 | 0 | 0 | 0 | 5% | 1.7%
NCC[C@H](O)C(=O)N[C@@H]1C[C@H](N)[C@@H](O[C@H]2O[C@H](CN)[C@@H](O)[C@H](O)[C@H]2O)[C@H](O)[C@H]1O[C@H]1O[C@H](CO)[C@@H](O)[C@H](N)[C@H]1O [AMIKACIN] | 0 | 15.3% | 0 | 0 | 0 | 0 | 0 | 0% | 0 | 6 | 0 | 0 | 0 | 0 | – | – | –
CN(C)CCN1C(=O)c2cccc3cc(N)cc(c23)C1=O [AMONAFIDE] | 0 | 44% | 0 | 0 | 0 | 0 | 0 | 0% | 0 | 5 | 0 | 0 | 0 | 0 | – | – | –
CC(C)(C#N)c1cc(Cn2cncn2)cc(C(C)(C)C#N)c1 [ANASTROZOLE] | 0 | 0% | 0 | 0 | 0 | 0 | 0 | 0% | 0 | 1 | 0 | 0 | 0 | 0 | – | – | –
O=c1n(CC2CO2)c(=O)n(CC2CO2)n1CC1CO1 (centres undefined) [ANAXIRONE] | 0 | 0% | 0 | 0 | 0 | 0 | 0 | 0% | 0 | 1 | 0 | 0 | 0 | 0 | – | – | –
Cc1cc(=O)n(-c2ccccc2)n1C [ANTIPYRINE] | 0 | 0% | 0 | 0 | 0 | 0 | 0 | 0% | 1 | 0 | 0 | 0 | 1 | 0 | – | – | –
CN1CCc2cccc3c2[C@H]1Cc1ccc(O)c(O)c1-3 [APOMORPHINE] | 0 | 0% | 0 | 0 | 0 | 0 | 0 | 0% | 0 | 1 | 0 | 0 | 0 | 0 | – | – | –
NCC[C@H](O)C(=O)N[C@@H]1C[C@H](N)[C@@H](O[C@H]2O[C@H](CN)CC[C@H]2N)[C@H](O)[C@H]1O[C@H]1O[C@H](CO)[C@@H](O)[C@H](N)[C@H]1O [ARBEKACIN] | 0 | 27.3% | 0 | 0 | 0 | 0 | 0 | 0% | 0 | 30 | 0 | 0 | 0 | 0 | – | – | –
CNC(=O)C[C@@H](N)C(=O)N[C@@H](C(=O)N[C@@H]1C(=O)N2[C@@H]1SC(C)(C)[C@@H]2C(=O)O)c1ccc(O)cc1 [ASPOXICILLIN] | 0 | 40% | 0 | 0 | 0 | 0 | 0 | 0% | 0 | 20 | 0 | 0 | 0 | 0 | – | – | –
CO[C@H]1[C@@H](O)[C@H](N)[C@@H](O[C@H]2O[C@H]([C@H](C)N)CC[C@H]2N)[C@H](O)[C@@H]1N(C)C(=O)CN [ASTROMICIN] | 0 | 7.3% | 0 | 0 | 0 | 0 | 0 | 0% | 0 | 1 | 0 | 0 | 0 | 0 | – | – | –
